Measurements: publication PMC3179684 (Toxicological Sciences, 2011)
Entries after “also recorded” stand apart in the source; their conditions may differ. Like-named read-outs stand apart in the source and are kept apart here.

How the values were obtained:
epoxide hydrolase (EH) [1] = biological target: T1, epoxide hydrolase (EH) (Mus musculus, UniProt Q9D379); assay: EO elimination in mouse liver microsomes; type: in vitro ADME, B6C3F1 mice; details: native pooled mouse liver microsomes vs heat-inactivated, 5 mg protein/ml
T1 sequence (Q9D379 1-455): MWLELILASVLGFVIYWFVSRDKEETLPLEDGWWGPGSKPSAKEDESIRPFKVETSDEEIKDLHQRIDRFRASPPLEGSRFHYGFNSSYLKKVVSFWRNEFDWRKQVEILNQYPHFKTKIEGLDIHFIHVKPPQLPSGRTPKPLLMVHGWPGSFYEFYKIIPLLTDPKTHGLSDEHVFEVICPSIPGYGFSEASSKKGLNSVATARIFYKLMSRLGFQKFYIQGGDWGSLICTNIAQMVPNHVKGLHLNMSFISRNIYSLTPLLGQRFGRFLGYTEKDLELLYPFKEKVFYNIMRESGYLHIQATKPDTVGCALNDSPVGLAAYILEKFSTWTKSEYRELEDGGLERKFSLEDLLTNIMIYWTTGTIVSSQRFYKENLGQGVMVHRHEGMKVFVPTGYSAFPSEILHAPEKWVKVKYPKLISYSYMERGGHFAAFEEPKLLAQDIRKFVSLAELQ

epoxide hydrolase (EH) [2] = biological target: T2, epoxide hydrolase (EH) (Rattus norvegicus, UniProt P07687); assay: EO elimination in rat liver microsomes; type: in vitro ADME, Fischer 344 rats; details: native pooled rat liver microsomes vs heat-inactivated, 5 mg protein/ml
T2 sequence (P07687 1-455): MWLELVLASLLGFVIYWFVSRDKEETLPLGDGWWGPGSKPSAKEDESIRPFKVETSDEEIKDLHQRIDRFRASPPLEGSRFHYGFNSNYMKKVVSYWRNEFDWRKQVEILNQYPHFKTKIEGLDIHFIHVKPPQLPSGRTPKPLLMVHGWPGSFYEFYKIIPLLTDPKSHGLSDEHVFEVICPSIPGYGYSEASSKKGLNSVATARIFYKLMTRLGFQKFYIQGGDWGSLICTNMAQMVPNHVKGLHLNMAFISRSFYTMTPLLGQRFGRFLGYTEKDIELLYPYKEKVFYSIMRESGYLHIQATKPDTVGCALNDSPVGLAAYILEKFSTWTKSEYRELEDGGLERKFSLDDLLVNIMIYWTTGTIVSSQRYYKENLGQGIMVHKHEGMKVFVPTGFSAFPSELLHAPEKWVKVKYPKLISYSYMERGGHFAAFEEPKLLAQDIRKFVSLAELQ

epoxide hydrolase (EH) [3] = biological target: T1, epoxide hydrolase (EH); assay: EO elimination in mouse lung microsomes; type: in vitro ADME, B6C3F1 mice; details: native pooled mouse lung microsomes vs heat-inactivated, 5 mg protein/ml
epoxide hydrolase (EH) [4] = biological target: T2, epoxide hydrolase (EH); assay: EO elimination in rat lung microsomes; type: in vitro ADME, Fischer 344 rats; details: native pooled rat lung microsomes vs heat-inactivated, 5 mg protein/ml
CYP450 = assay: EO incubation in pooled rat liver microsomes with NADPH-regenerating system; type: in vitro ADME, Fischer 344 rats; details: rat liver microsomal incubation with NADPH-regenerating system
[5] = test system: glutathione S-transferase (GST); assay: GST-mediated EO elimination in mouse liver cytosol; type: in vitro ADME, B6C3F1 mice; details: mouse pooled liver cytosol; taking a Km of 9 mmol/l
[6] = test system: glutathione S-transferase (GST); assay: GST-mediated EO elimination in rat liver cytosol; type: in vitro ADME, Fischer 344 rats; details: rat pooled liver cytosol; taking a Km of 9 mmol/l
[7] = test system: glutathione S-transferase (GST); assay: GST-mediated EO elimination in human liver cytosol; type: in vitro ADME; details: human pooled liver cytosol; taking a Km of 9 mmol/l
[8] = test system: glutathione S-transferase (GST); assay: GST-mediated EO elimination in mouse lung cytosol; type: in vitro ADME, B6C3F1 mice; details: taking a Km of 9 mmol/l
[9] = test system: glutathione S-transferase (GST); assay: GST-mediated EO elimination in rat lung cytosol; type: in vitro ADME, Fischer 344 rats; details: taking a Km of 9 mmol/l
[10] = Nonenzymatic conjugation with GSH; type: physicochemical; details: GSH 15 mmol/l, 37°C, pH 7.4
Spontaneous = type: physicochemical; details: MgCl2 containing potassium phosphate buffer pH 7.4, 37°C
[11] = calculated from the data of ref Brown et al. (1996); cited from earlier work
GSH levels in the livers = details: Fischer rats exposed for 4 h to 1200 ppm EO; ref McKelvey and Zemaitis (1986); cited from earlier work
[12] = rat; ref Dunkelberg, 1982; Garman et al., 1985; Snellings et al., 1984; cited from earlier work
[13] = mouse; ref Dunkelberg, 1981; National Toxicology Program, 1987; cited from earlier work
[14] = humans; ref IARC (1994b); cited from earlier work
epoxide hydrolase (EH) [15] = biological target: T3, epoxide hydrolase (EH) (Homo sapiens, UniProt P07099); assay: EO elimination in human liver microsomes; details: pooled native human liver microsomes, best fit (Berkeley Madonna)
T3 sequence (P07099 1-455): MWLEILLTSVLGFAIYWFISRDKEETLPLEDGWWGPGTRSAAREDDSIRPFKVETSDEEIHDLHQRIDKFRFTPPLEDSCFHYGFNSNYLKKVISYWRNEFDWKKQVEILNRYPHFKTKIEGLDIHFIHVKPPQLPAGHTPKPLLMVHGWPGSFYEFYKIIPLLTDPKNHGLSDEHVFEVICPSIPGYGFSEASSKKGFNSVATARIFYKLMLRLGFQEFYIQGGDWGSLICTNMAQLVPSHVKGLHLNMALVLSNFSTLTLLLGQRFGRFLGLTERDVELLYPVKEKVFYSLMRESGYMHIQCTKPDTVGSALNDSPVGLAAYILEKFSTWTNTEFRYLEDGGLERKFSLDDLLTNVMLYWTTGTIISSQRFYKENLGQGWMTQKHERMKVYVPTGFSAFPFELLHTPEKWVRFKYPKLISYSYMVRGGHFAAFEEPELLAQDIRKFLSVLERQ

C1CO1 [EO, ethylene oxide]
EH-catalyzed EO elimination (epoxide hydrolase (EH) [1]): not detectable; also recorded: no EH-catalyzed EO elimination was found
EH-catalyzed EO elimination (epoxide hydrolase (EH) [2]): not detectable; also recorded: no EH-catalyzed EO elimination was found
EH-catalyzed EO elimination (epoxide hydrolase (EH) [3]): no EH-catalyzed EO elimination was found
EH-catalyzed EO elimination (epoxide hydrolase (EH) [4]): no EH-catalyzed EO elimination was found
CYP-mediated EO elimination (CYP450): no CYP-mediated EO elimination was detected
Vmax of GST-mediated GSH conjugation with EO [5]: 251 nmol/min/mg protein
Vmax of GST-mediated GSH conjugation with EO [6]: 47.7 nmol/min/mg protein
Vmax of GST-mediated GSH conjugation with EO [7]: 10.3 nmol/min/mg protein
Vmax of GST-mediated GSH conjugation with EO [8]: 56.9 nmol/min/mg protein
Vmax of GST-mediated GSH conjugation with EO [9]: 16.0 nmol/min/mg protein
mean half-life of nonenzymatic conjugation with GSH [10]: 3.7 h
mean half-life of spontaneous hydrolysis (Spontaneous): 12.4 h
rate constant of the spontaneous hydrolysis (Spontaneous; mean ± SE, n = 36): 0.00093 ± 7e-05 min⁻¹
rate constant of the nonenzymatic elimination [11]: 0.001 min⁻¹
GSH levels in the livers (GSH levels in the livers): less than 20 % of the control value
carcinogenicity [12]: carcinogenic
carcinogenicity [13]: carcinogenic
IARC evaluation [14]: carcinogenic to humans
Vmax of EO elimination (epoxide hydrolase (EH) [15]): 14.35 nmol/min/mg protein
